Experimental data reported in ChEMBL document CHEMBL4138123, “Design, synthesis and biological evaluation of novel pyrazolochalcones as potential modulators of PI3K/Akt/mTOR pathway and inducers of apoptosis in breast cancer cells” (Eur J Med Chem, 2017).
pIC50: −log10 of the molar value.

Experiments:
SR [1] = assay: Cytotoxicity against human SR cells assessed as growth inhibition after 48 hrs by sulforhodamine B assay; assay type: functional
HT-29 [2] = assay: Cytotoxicity against human HT-29 cells assessed as growth inhibition after 48 hrs by sulforhodamine B assay; assay type: functional; conditions: HT-29, 48 h
SF-539 = assay: Cytotoxicity against human SF539 cells assessed as growth inhibition after 48 hrs by sulforhodamine B assay; assay type: functional; conditions: SF-539, 48 h
Malme-3M = assay: Cytotoxicity against human MALME-3M cells assessed as growth inhibition after 48 hrs by sulforhodamine B assay; assay type: functional
SK-MEL-2 = assay: Cytotoxicity against human SK-MEL-2 cells assessed as growth inhibition after 48 hrs by sulforhodamine B assay; assay type: functional; conditions: SK-MEL-2, 48 h
UACC-257 = assay: Cytotoxicity against human UACC257 cells assessed as growth inhibition after 48 hrs by sulforhodamine B assay; assay type: functional; conditions: UACC-257, 48 h
OVCAR-5 = assay: Cytotoxicity against human OVCAR5 cells assessed as growth inhibition after 48 hrs by sulforhodamine B assay; assay type: functional; conditions: OVCAR-5, 48 h
ACHN = assay: Cytotoxicity against human ACHN cells assessed as growth inhibition after 48 hrs by sulforhodamine B assay; assay type: functional
BT-549 [3] = assay: Cytotoxicity against human BT549 cells assessed as growth inhibition after 48 hrs by sulforhodamine B assay; assay type: functional; conditions: BT-549, 48 h
MDA-MB-231 = assay: Cytotoxicity against human MDA-MB-231 cells assessed as growth inhibition after 48 hrs by MTT assay; assay type: functional, cell-based; conditions: MDA-MB-231, 48 h
786-0 [4] = assay: Cytotoxicity against human 786-0 cells assessed as cell growth at 0.01 uM after 48 hrs by sulforhodamine B assay relative to control; assay type: functional; conditions: 786-0, 48 h, read-out: Activity
NCI-H226 = assay: Cytotoxicity against human NCI-H226 cells assessed as cell growth at 0.01 uM after 48 hrs by sulforhodamine B assay relative to control; assay type: functional; conditions: NCI-H226, 48 h, read-out: Activity
SN12C = assay: Cytotoxicity against human SN12C cells assessed as cell growth at 0.01 uM after 48 hrs by sulforhodamine B assay relative to control; assay type: functional; conditions: read-out: Activity
BT-549 [5] = assay: Cytotoxicity against human BT549 cells assessed as cell growth at 0.01 uM after 48 hrs by sulforhodamine B assay relative to control; assay type: functional; conditions: BT-549, 48 h, read-out: Activity
HL-60(TB) [6] = assay: Cytotoxicity against human HL-60(TB) cells assessed as cell growth at 0.1 uM after 48 hrs by sulforhodamine B assay relative to control; assay type: functional; conditions: HL-60, 48 h, read-out: Activity
U-251 = assay: Cytotoxicity against human U251 cells assessed as cell growth at 0.1 uM after 48 hrs by sulforhodamine B assay relative to control; assay type: functional; conditions: U-251, 48 h, read-out: Activity
M14 [7] = assay: Cytotoxicity against human M14 cells assessed as cell growth at 0.1 uM after 48 hrs by sulforhodamine B assay relative to control; assay type: functional; conditions: M14, 48 h, read-out: Activity
NCI/ADR-RES = assay: Cytotoxicity against human NCI/ADR-RES cells assessed as cell growth at 0.1 uM after 48 hrs by sulforhodamine B assay relative to control; assay type: functional; conditions: read-out: Activity
Hs-578T = assay: Cytotoxicity against human Hs 578T cells assessed as cell growth at 0.1 uM after 48 hrs by sulforhodamine B assay relative to control; assay type: functional; conditions: read-out: Activity
CCRF-CEM = assay: Cytotoxicity against human CCRF-CEM cells assessed as cell growth at 1 uM after 48 hrs by sulforhodamine B assay relative to control; assay type: functional; conditions: read-out: Activity
HOP-62 = assay: Cytotoxicity against human HOP62 cells assessed as cell growth at 1 uM after 48 hrs by sulforhodamine B assay relative to control; assay type: functional; conditions: HOP-62, 48 h, read-out: Activity
HT-29 [8] = assay: Cytotoxicity against human HT-29 cells assessed as cell growth at 1 uM after 48 hrs by sulforhodamine B assay relative to control; assay type: functional; conditions: HT-29, 48 h, read-out: Activity
M14 [9] = assay: Cytotoxicity against human M14 cells assessed as cell growth at 1 uM after 48 hrs by sulforhodamine B assay relative to control; assay type: functional; conditions: M14, 48 h, read-out: Activity
SK-MEL-28 = assay: Cytotoxicity against human SK-MEL-28 cells assessed as cell growth at 1 uM after 48 hrs by sulforhodamine B assay relative to control; assay type: functional; conditions: SK-MEL-28, 48 h, read-out: Activity
SR [10] = assay: Cytotoxicity against human SR cells assessed as cell growth at 10 uM after 48 hrs by sulforhodamine B assay relative to control; assay type: functional; conditions: read-out: Activity
NCI-H522 [11] = assay: Cytotoxicity against human NCI-H522 cells assessed as cell growth at 10 uM after 48 hrs by sulforhodamine B assay relative to control; assay type: functional; conditions: NCI-H522, 48 h, read-out: Activity
RXF 393 = assay: Cytotoxicity against human RXF393 cells assessed as cell growth at 10 uM after 48 hrs by sulforhodamine B assay relative to control; assay type: functional; conditions: RXF 393, 48 h, read-out: Activity
HL-60(TB) [12] = assay: Cytotoxicity against human HL-60(TB) cells assessed as cell growth at 100 uM after 48 hrs by sulforhodamine B assay relative to control; assay type: functional; conditions: HL-60, 48 h, read-out: Activity
RPMI-8226 = assay: Cytotoxicity against human RPMI8226 cells assessed as cell growth at 100 uM after 48 hrs by sulforhodamine B assay relative to control; assay type: functional; conditions: RPMI-8226, 48 h, read-out: Activity
NCI-H23 = assay: Cytotoxicity against human NCI-H23 cells assessed as cell growth at 100 uM after 48 hrs by sulforhodamine B assay relative to control; assay type: functional; conditions: NCI-H23, 48 h, read-out: Activity
NCI-H522 [13] = assay: Cytotoxicity against human NCI-H522 cells assessed as cell growth at 100 uM after 48 hrs by sulforhodamine B assay relative to control; assay type: functional; conditions: NCI-H522, 48 h, read-out: Activity
SW-620 = assay: Cytotoxicity against human SW620 cells assessed as cell growth at 100 uM after 48 hrs by sulforhodamine B assay relative to control; assay type: functional; conditions: SW-620, 48 h, read-out: Activity
M14 [14] = assay: Cytotoxicity against human M14 cells assessed as cell growth at 100 uM after 48 hrs by sulforhodamine B assay relative to control; assay type: functional; conditions: M14, 48 h, read-out: Activity
IGROV-1 = assay: Cytotoxicity against human IGROV1 cells assessed as cell growth at 100 uM after 48 hrs by sulforhodamine B assay relative to control; assay type: functional; conditions: IGROV-1, 48 h, read-out: Activity
786-0 [15] = assay: Cytotoxicity against human 786-0 cells assessed as cell growth at 100 uM after 48 hrs by sulforhodamine B assay relative to control; assay type: functional; conditions: 786-0, 48 h, read-out: Activity

Q: How did the TGI (SR [1]) turn out when `COc1cc(C(=O)/C=C/c2cc(-c3cc(OC)c(OC)c(OC)c3)n[nH]2)cc(OC)c1OC` was run?
A: The TGI was > 100 µM.

Q: What about the CC50 (SR [1]; read-out: LC50 (the source's name)) of the same compound?
A: The CC50 was > 100 µM.

Q: And the LC50 (HT-29 [2])?
A: Its LC50 is 6.36 µM.

Q: What about the TGI (HT-29 [2]) of the same compound?
A: The TGI was 3.37 µM.

Q: And the LC50 (concentration killing 50% of cells) (SF-539)?
A: Its LC50 (concentration killing 50% of cells) is 6.23 µM.

Q: What about the TGI (SF-539) of the same compound?
A: Its TGI is 2.83 µM.

Q: And the LC50 (Malme-3M)?
A: Its LC50 is 8.99 µM.

Q: What about the TGI (Malme-3M) of the same compound?
A: The TGI was 4.09 µM.

Q: And the LC50 (concentration killing 50% of cells) (SK-MEL-2)?
A: Its LC50 (concentration killing 50% of cells) is 8.32 µM.

Q: What about the TGI (SK-MEL-2) of the same compound?
A: The TGI was 4.04 µM.

Q: And the LC50 (UACC-257)?
A: The LC50 was 5.71 µM.

Q: What about the TGI (UACC-257) of the same compound?
A: Its TGI is 2.99 µM.

Q: And the LC50 (OVCAR-5)?
A: The LC50 was 5.92 µM.

Q: And the TGI (OVCAR-5)?
A: The TGI was 3.12 µM.

Q: What about the LC50 (ACHN) of the same compound?
A: Its LC50 is 5.57 µM.

Q: And the TGI (ACHN)?
A: The TGI was 3.01 µM.

Q: What about the LC50 (concentration killing 50% of cells) (BT-549 [3]) of the same compound?
A: The LC50 (concentration killing 50% of cells) was 5.6 µM.

Q: And the TGI (BT-549 [3])?
A: Its TGI is 2.96 µM.

Q: What about the pIC50 (MDA-MB-231) of the same compound?
A: Its pIC50 is 6.15.

Q: What about the growth at 0.01 µM (786-0 [4]) of the same compound?
A: The growth at 0.01 µM was 101%.

Q: And the growth at 0.01 µM (NCI-H226)?
A: Its growth at 0.01 µM is 99%.

Q: What about the growth at 0.01 µM (SN12C) of the same compound?
A: The growth at 0.01 µM was 96%.

Q: And the growth at 0.01 µM (BT-549 [5])?
A: The growth at 0.01 µM was 102%.

Q: What about the growth at 0.1 µM (HL-60(TB) [6]) of the same compound?
A: Its growth at 0.1 µM is 101%.

Q: And the growth at 0.1 µM (U-251)?
A: The growth at 0.1 µM was 94%.

Q: And the growth at 0.1 µM (M14 [7])?
A: The growth at 0.1 µM was 109%.

Q: What about the growth at 0.1 µM (NCI/ADR-RES) of the same compound?
A: Its growth at 0.1 µM is 106%.

Q: And the growth at 0.1 µM (Hs-578T)?
A: The growth at 0.1 µM was 90%.

Q: What about the growth at 1 µM (CCRF-CEM) of the same compound?
A: Its growth at 1 µM is 67%.

Q: And the growth at 1 µM (HOP-62)?
A: Its growth at 1 µM is 78%.

Q: And the growth at 1 µM (HT-29 [8])?
A: Its growth at 1 µM is 96%.

Q: What about the growth at 1 µM (M14 [9]) of the same compound?
A: Its growth at 1 µM is 98%.

Q: What about the growth at 1 µM (SK-MEL-28) of the same compound?
A: The growth at 1 µM was 100%.

Q: And the growth at 10 µM (SR [10])?
A: The growth at 10 µM was 12%.

Q: And the growth at 10 µM (NCI-H522 [11])?
A: Its growth at 10 µM is -97%.

Q: And the growth at 10 µM (RXF 393)?
A: The growth at 10 µM was -88%.

Q: And the growth at 100 µM (HL-60(TB) [12])?
A: Its growth at 100 µM is -33%.

Q: And the growth at 100 µM (RPMI-8226)?
A: Its growth at 100 µM is -26%.

Q: What about the growth at 100 µM (NCI-H23) of the same compound?
A: The growth at 100 µM was -62%.

Q: And the growth at 100 µM (NCI-H522 [13])?
A: The growth at 100 µM was -98%.

Q: What about the growth at 100 µM (SW-620) of the same compound?
A: Its growth at 100 µM is -95%.

Q: And the growth at 100 µM (M14 [14])?
A: The growth at 100 µM was -88%.

Q: And the growth at 100 µM (IGROV-1)?
A: Its growth at 100 µM is -97%.

Q: And the growth at 100 µM (786-0 [15])?
A: Its growth at 100 µM is -98%.
